Source: PubChem BioAssay AID1949 (Southern Research Institute, 2009)
Values after ≈ are worked out from the molar mass of the structure shown. Results filed as inconclusive are left out. Active and inactive are the calls of the source. The rule behind the calls is not given here.

Each compound was assayed on M. tuberculosis H37Rv growth inhibition (assay: Confirmatory growth inhibition assay against Mycobacterium tuberculosis H37Rv, potency (AID 1949);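 note: bacteria grown 7 days with compound before Alamar blue readout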).

Compared with `CC(NC(=S)NC(=O)c1ccc(-c2ccccc2)cc1)c1ccccc1` (stereo unspecified), `CC(=O)NC(=S)NNC(=O)c1ccc(-c2ccccc2)cc1` is lower in IC50: 5.85 µg/mL (≈ 16.2 µM) for the first, < 0.1 µg/mL for the second.

`N#C/C(=C/c1ccc(N2CCCCC2)o1)c1cccc(F)c1` and `COc1c(C)cccc1C(=O)Nc1ccc(N2CCCC2)cc1` are within 1.5-fold of each other in IC50: 5.98 µg/mL (≈ 20.2 µM) for the first, 4.85 µg/mL (≈ 15.6 µM) for the second.

First: Cc1ccccc1OC(=O)c1sc2ccccc2c1Cl
Second: CC(=O)Oc1c(C(=O)c2ccccc2)sc2ccccc12
The IC50 of the first is 2.9-fold higher: 2.05 µg/mL (≈ 6.77 µM) for the first, 0.71 µg/mL (≈ 2.4 µM) for the second.

Compared with `CCOC(=O)COc1ccc(S(=O)(=O)Nc2c(C)cccc2CC)cc1`, `COC(=O)COc1ccc(-c2ccc(C)cc2)cc1` is 1.5-fold lower in IC50: 0.33 µg/mL (≈ 0.874 µM) for the first, 0.22 µg/mL (≈ 0.858 µM) for the second.

`Cc1ccc(-c2noc(CNc3cccc(Cl)c3)n2)cc1` and `Oc1ccc(Cl)cc1CNc1nc2ccccc2[nH]1` are within 1.5-fold of each other in IC50: 13.9 µg/mL (≈ 46.4 µM) for the first, 12.1 µg/mL (≈ 44.3 µM) for the second.

First: Cc1cc(C)n(-c2nc3sc4c(c3c(=O)[nH]2)CCCC4)n1
Second: Nc1c2c(nc3sc4c(c13)CCCC4)CCCC2
The IC50 of the first is 41-fold higher: 24.4 µg/mL (≈ 81.1 µM) for the first, 0.6 µg/mL (≈ 2.32 µM) for the second.

`Cc1cc(Cl)ccc1OCC(=O)Nc1ccc(N2CCN(C)CC2)c(Cl)c1` and `Cc1ccc(Cl)cc1N1CCN(CC(O)COc2ccc(Cl)cc2)CC1` (stereo unspecified) are within 1.5-fold of each other in IC50: 5.62 µg/mL (≈ 13.8 µM) for the first, 4.57 µg/mL (≈ 11.6 µM) for the second.

First: COc1ccccc1Nc1nc(NCc2ccccc2)c2ccccc2n1
Second: COc1ccccc1-c1c(C)oc2cc(OCc3ccccc3)ccc2c1=O
The IC50 of the first is 2.9-fold lower: 3.21 µg/mL (≈ 9.01 µM) for the first, 9.15 µg/mL (≈ 24.6 µM) for the second.

Compared with `O=C(Oc1cccc2cccnc12)c1cccc([N+](=O)[O-])c1`, `O=C(Nc1ccc(OC(F)(F)F)cc1)Nc1cccc([N+](=O)[O-])c1` is 57-fold lower in IC50: 10.8 µg/mL (≈ 36.7 µM) for the first, 0.19 µg/mL (≈ 0.557 µM) for the second.

First: Cc1ccc(C(=O)NC(=S)Nc2ccc(S(=O)(=O)NC(C)C)cc2)cc1Br
Second: CC(=O)c1ccc(NC(=S)Nc2ccc(Br)c(Cl)c2)cc1
The IC50 of the first is 1.8-fold higher: 3.75 µg/mL (≈ 7.97 µM) for the first, 2.14 µg/mL (≈ 5.58 µM) for the second.

`O=C(Nc1ccc(Cl)cc1)c1cc([N+](=O)[O-])ccc1O` and `Cc1ccc(NC(=O)Nc2ccc([N+](=O)[O-])cc2)cc1F` are within 1.5-fold of each other in IC50: 17.7 µg/mL (≈ 60.6 µM) for the first, 13.2 µg/mL (≈ 45.6 µM) for the second.

Compared with `CCN1CCN(c2ccc(NC(=O)CC34CC5CC(CC(C5)C3)C4)cc2Cl)CC1`, `O=C(Nc1ccc2c(c1)OCCO2)NC12CC3CC(CC(C3)C1)C2` is 11-fold lower in IC50: 49.4 µg/mL (≈ 119 µM) for the first, 4.52 µg/mL (≈ 13.8 µM) for the second.

Going from `Cn1nc([N+](=O)[O-])nc1Sc1ncnn1-c1ccccc1` to `Cc1cc(Sc2ncnc(N)c2[N+](=O)[O-])ncn1`, the IC50 falls from 2.98 µg/mL (≈ 9.83 µM) to 1.7 µg/mL (≈ 6.43 µM) (1.8-fold).

Going from `CC(C)(C)c1ccc(OCC(=O)Nc2ccc3c(c2)OCCO3)c(Br)c1` to `COc1cc(NC(=O)c2ccc3c(c2)OCCO3)ccc1NC(=O)c1ccccc1Cl`, the IC50 falls from 4.25 µg/mL (≈ 10.1 µM) to 0.66 µg/mL (≈ 1.5 µM) (6.4-fold).

`O=C(c1cccc(Cl)c1)N1N=C(c2ccc(Cl)cc2)CC1(O)C(F)(F)F` (stereo unspecified) and `Fc1ccc(C2=NN(c3ccc(Cl)cc3)C(c3cccs3)C2)cc1` (stereo unspecified) are within 1.5-fold of each other in IC50: 3.82 µg/mL (≈ 9.47 µM) for the first, 5.63 µg/mL (≈ 15.8 µM) for the second.

Going from `CCCN(CCC)C(=S)NC(=O)c1ccc(OC)cc1` to `CC(C)(C)c1cc(Cl)c(O)c(NC(=S)NC(=O)c2ccc(Cl)cc2)c1`, the IC50 falls from 2.58 µg/mL (≈ 8.76 µM) to < 0.1 µg/mL.

Going from `O=C(Nc1cccc(C(F)(F)F)c1)N1CCN(c2cccc(C(F)(F)F)c2)CC1` to `CCNS(=O)(=O)c1ccc(NC(=O)Nc2cccc(C(F)(F)F)c2)cc1`, the IC50 rises from 5.09 µg/mL (≈ 12.2 µM) to 7.85 µg/mL (≈ 20.3 µM) (1.5-fold).

Compared with `COc1ccc(C2CC(=O)Nc3ccc4ccccc4c32)c(I)c1O` (stereo unspecified), `COc1ccc(S(=O)(=O)Nc2cc(Sc3ccccc3)c(O)c3ccccc23)cc1` is 1.5-fold higher in IC50: 3.48 µg/mL (≈ 7.82 µM) for the first, 5.29 µg/mL (≈ 12.1 µM) for the second.

`CCCCNCCOc1ccc2ccccc2c1Br` and `c1ccc2cc(OCCCn3ccnc3)ccc2c1` are within 1.5-fold of each other in IC50: 7.65 µg/mL (≈ 23.7 µM) for the first, 10.3 µg/mL (≈ 40.9 µM) for the second.

`C=CCc1ccccc1OCCCCn1ccnc1` and `Clc1ccc(OCCCn2ccnc2)cc1Cl` are within 1.5-fold of each other in IC50: 3.93 µg/mL (≈ 15.3 µM) for the first, 3.98 µg/mL (≈ 14.7 µM) for the second.

First: O=C(NC(=S)N1CCc2ccccc21)c1ccco1
Second: CN(Cc1ccccc1)C(=S)NC(=O)c1cccs1
The IC50 of the first is 7.6-fold higher: 5.64 µg/mL (≈ 20.7 µM) for the first, 0.74 µg/mL (≈ 2.55 µM) for the second.

First: COc1ccccc1C(=O)NNC(=S)NC(=O)c1cccs1
Second: CC(C)(C)C(=O)NC(=S)NNC(=O)C(c1ccccc1)c1ccccc1
The IC50 of the first is 20-fold lower: 0.15 µg/mL (≈ 0.447 µM) for the first, 3.01 µg/mL (≈ 8.15 µM) for the second.

Compared with `CN1CCN(c2ccc(NC(=O)c3ccc(-c4ccc(Br)cc4)o3)cc2)CC1`, `COc1cccc(NC(=O)CSc2ccc(Br)cc2)c1` is 4-fold higher in IC50: 2.94 µg/mL (≈ 6.68 µM) for the first, 11.7 µg/mL (≈ 33.2 µM) for the second.

Compared with `O=C(OCc1ccc(S(=O)(=O)c2ccccc2)cc1)c1ccccc1Br`, `O=C(COc1ccc2ccccc2c1)c1ccc(Cl)cc1` is 2-fold higher in IC50: 8.37 µg/mL (≈ 19.4 µM) for the first, 16.5 µg/mL (≈ 55.4 µM) for the second.

`CCOC(=O)c1c(C)n(Cc2ccccc2)c2ccc(OCC(O)CNC(C)(C)C)cc12` (stereo unspecified) and `CCOC(=O)c1c(-c2ccccc2)c2cc(OC)ccc2n1CCCN(C)C` are within 1.5-fold of each other in IC50: 4.28 µg/mL (≈ 9.76 µM) for the first, 4.68 µg/mL (≈ 12.3 µM) for the second.

First: CCCCn1c(NC(=S)Nc2ccccc2)nc2ccccc21
Second: O=C(CCN1CCC(c2ccccc2)C1)c1ccccc1 (stereo unspecified)
The IC50 of the first is 2.6-fold lower: 4.83 µg/mL (≈ 14.9 µM) for the first, 12.5 µg/mL (≈ 44.6 µM) for the second.

First: N=c1c2c(-c3ccccc3)c(-c3ccccc3)n(Cc3ccco3)c2ncn1Cc1ccco1
Second: FC(F)(F)c1cccc(-n2cc(-c3ccccc3)c3c(NCc4cccnc4)ncnc32)c1
The IC50 of the first is 2-fold higher: 3.09 µg/mL (≈ 6.92 µM) for the first, 1.51 µg/mL (≈ 3.39 µM) for the second.

Compared with `CCOC(=O)c1c(C)n(-c2ccc(C)cc2)c2ccc(O)c(CN(C)C)c12`, `Cc1ccc(-n2sc3ccccc3c2=O)cc1` is lower in IC50: 10.9 µg/mL (≈ 29.6 µM) for the first, < 0.1 µg/mL for the second.

First: COC(=O)COc1ccc2c(=O)c(-c3ccccc3Cl)coc2c1
Second: COC(=O)COc1ccc2c(=O)c(-c3ccc(Cl)cc3)coc2c1
The IC50 of the first is 2.5-fold lower: 0.4 µg/mL (≈ 1.16 µM) for the first, 0.99 µg/mL (≈ 2.87 µM) for the second.

First: Cc1cc2ncn(CCOc3ccc(Cl)cc3)c2cc1C
Second: COC(=O)c1ccc(OCC(O)CN2CCN(c3cc(Cl)ccc3C)CC2)cc1 (stereo unspecified)
The IC50 of the first is 4.6-fold lower: 1.12 µg/mL (≈ 3.72 µM) for the first, 5.13 µg/mL (≈ 12.2 µM) for the second.

First: Fc1ccc(Nc2nc(-c3ccccn3)cs2)cc1
Second: CC(=O)Oc1cccc2ccc(/C=C/c3ccc(F)cc3)nc12
The IC50 of the first is higher: 0.28 µg/mL (≈ 1.03 µM) for the first, < 0.1 µg/mL for the second.

`CCC(C)c1ccc(OCC(=O)Nc2ccc(OC)c([N+](=O)[O-])c2)cc1` (stereo unspecified) and `Cc1ccc(SCC(=O)Nc2ccc(C)c([N+](=O)[O-])c2)cc1` are within 1.5-fold of each other in IC50: 1.61 µg/mL (≈ 4.49 µM) for the first, 2.18 µg/mL (≈ 6.89 µM) for the second.

First: O=C(CC(O)(C(F)(F)F)C(F)(F)F)Nc1ccc(Cl)cc1Cl
Second: NC(CC(=O)c1ccc(Cl)cc1Cl)C(Cl)(Cl)Cl (stereo unspecified)
The IC50 of the first is 21-fold higher: 5.7 µg/mL (≈ 15.4 µM) for the first, 0.27 µg/mL (≈ 0.805 µM) for the second.

First: CCOC(=O)c1ccc(NC(=O)/C=C/c2ccc([N+](=O)[O-])s2)cc1
Second: O=C(Oc1ccc(F)cc1)c1ccc(Oc2ccc([N+](=O)[O-])cc2)cc1
The IC50 of the first is 4-fold lower: 0.28 µg/mL (≈ 0.808 µM) for the first, 1.12 µg/mL (≈ 3.17 µM) for the second.

Compared with `Oc1ccc(Br)cc1-c1nc(-c2cccs2)c(-c2cccs2)[nH]1`, `O=C(CCNc1ccc(Cc2ccncc2)cc1)c1cccs1` is 3.8-fold higher in IC50: 1.55 µg/mL (≈ 3.84 µM) for the first, 5.83 µg/mL (≈ 18.1 µM) for the second.

Going from `COc1cccc(OCC(=O)c2ccc(Br)cc2)c1` to `COC(=O)COc1ccc(/C=C(/C#N)c2nc3ccccc3[nH]2)cc1`, the IC50 rises from 0.37 µg/mL (≈ 1.15 µM) to 0.67 µg/mL (≈ 2.01 µM) (1.8-fold).

Compared with `CCC(C)c1ccccc1OCCCNC1CCCC1` (stereo unspecified), `Cn1nnc(NC(=O)COc2ccc(C3CCCCC3)cc2)n1` is 3.1-fold lower in IC50: 8.81 µg/mL (≈ 32 µM) for the first, 2.85 µg/mL (≈ 9.04 µM) for the second.

First: CCc1ccc(Oc2coc3cc(OC(C)C(=O)OC)ccc3c2=O)cc1 (stereo unspecified)
Second: CCCCc1ccc(N/C(N)=N\c2nc(C)cc(C)n2)cc1
The IC50 of the first is 7.6-fold lower: 3.05 µg/mL (≈ 8.28 µM) for the first, 23.3 µg/mL (≈ 78.2 µM) for the second.

For `CCOC(=O)C1=CN(C(C)C)C=C(C(=O)OCC)C1c1cc(OC)ccc1OC`, the IC50 was > 50 µg/mL (inactive).
For `CCCn1c2ccccc2c2nc3ccccc3nc21`, the IC50 was > 50 µg/mL (inactive).
`COc1cccc(C2Oc3ccccc3C=C2[N+](=O)[O-])c1OC` (stereo unspecified) was tested, and the IC50 was > 50 µg/mL (inactive).
`O=C(CC1CCCCC1)c1c(O)c2ccccc2oc1=O` was tested, and the IC50 was > 50 µg/mL (inactive).
In the case of `O=C(O)c1ccc(-n2nnnc2SCc2ccccc2F)cc1`, the IC50 is reported as > 50 µg/mL (inactive).
For `CCN(CC)c1ncnc2c1sc1nc(C)cc(C)c12`, the IC50 was > 50 µg/mL (inactive).
In the case of `N#Cc1ccccc1-c1ccc(/C=C/[N+](=O)[O-])o1`, the IC50 is reported as > 50 µg/mL (inactive).
In the case of `Cc1ccc(-c2nc(NC(=O)C34CC5CC(CC(C5)C3)C4)sc2C)cc1`, the IC50 is reported as > 50 µg/mL (inactive).
With `CCC(=O)Oc1ccc(-c2nc3ccccc3c(=O)o2)cc1` the IC50 was > 50 µg/mL (inactive).
In the case of `CCC(C)Oc1c(Cl)cc(/C=C\[N+](=O)[O-])cc1OC` (stereo unspecified), the IC50 is reported as > 50 µg/mL (inactive).
